# According to paper PMC5625810, “Chiglitazar Preferentially Regulates Gene Expression via Configuration-Restricted Binding and Phosphorylation Inhibition of PPARγ” (PPAR Research, 2017):
# Target: T1, PPARγ (Homo sapiens, UniProt P37231)
# T1 construct: gene PPARG
# T1 sequence (P37231 231-505 limits assumed): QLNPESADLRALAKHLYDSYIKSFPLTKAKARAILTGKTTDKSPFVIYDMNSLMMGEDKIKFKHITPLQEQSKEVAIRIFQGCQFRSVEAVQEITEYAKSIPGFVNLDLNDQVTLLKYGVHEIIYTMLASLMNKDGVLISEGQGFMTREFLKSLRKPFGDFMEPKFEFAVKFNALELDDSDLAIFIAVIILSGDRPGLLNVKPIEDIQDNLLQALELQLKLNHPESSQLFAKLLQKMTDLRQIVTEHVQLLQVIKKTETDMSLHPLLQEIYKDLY
# Experiment: AlphaScreen cofactor peptide recruitment on purified LBD ([…]); cell reporter AC50 […] separately
# Format: biochemical
smiles,measurement,value
"CN(CCOc1ccc(CC2SC(=O)NC2=O)cc1)c1ccccn1 (stereo not shown) [Ros, rosiglitazone]",AlphaScreen cofactor peptide recruitment on purified LBD (2 μM); cell reporter A,The inhibition was partially and differentially restored upon additions of the three ligands
